Assay results as given in US20250154169A1, “COMPOUNDS AND METHODS FOR MODULATING SPLICING” (REMIX THERAPEUTICS INC., priority 2021, published 2025).
Where a name gives a salt, the structure may show the parent alone. Read-outs that look alike come from different tables or passages of the source.

Assays:
Type in all cases: cell-based, human
MYB mRNA = assay: Splicing RT-qPCR assay, MYB canonical (CJ) and alternative (AJ) junction mRNA; conditions: Homo sapiens; for AC50: read-out: MYB AJ (AC50, increase in alternative junction mRNA)
Method in brief: (§1)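 One-step RT-qPCR on cell lysates, CJ and AJ isoforms quantified; housekeeping normalization GAPDH/GUSB (K562) or PPIA (A673). Cells: A673 in DMEM/10% FBS or K562 in IMDM/10% FBS. Compounds 11-pt 3-fold, top 10 uM, 24 h, 37 °C, 5% CO2.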

SMN2 mRNA = assay: Splicing RT-qPCR gene panel, SMN2 canonical junction (CJ) mRNA; conditions: Homo sapiens, Tables 4A/4B, read-out: SMN2 (IC50, decrease in CJ mRNA, gene panel)
Method in brief: (§2)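 A673 or K562 cells treated 24 h at 37° C. with an 11-point 3-fold dilution series (top 10 uM, ≤0.25% DMSO). Lysates analysed by one-step RT-qPCR for canonical exon-exon junction transcripts, normalized to GAPDH, GUSB or PPIA and DMSO control (2^(−ΔΔCt)), then converted to percentage response.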

Target C mRNA = assay: Splicing RT-qPCR gene panel, Target C canonical junction (CJ) mRNA; conditions: Homo sapiens, Tables 4A/4B, read-out: Target C (IC50, decrease in CJ mRNA, gene panel)
Method in brief: as §2

HTT mRNA [1] = assay: Splicing RT-qPCR assay, HTT canonical (CJ) and alternative (AJ) junction mRNA; conditions: Homo sapiens, A673 or K562 cells, 24 hours compound treatment; for IC50: 24 h, read-out: HTT CJ (IC50, decrease in canonical junction mRNA); for AC50: read-out: HTT AJ (AC50, increase in alternative junction mRNA)
Method in brief: as §1

HTT mRNA [2] = assay: Splicing RT-qPCR gene panel, HTT canonical junction (CJ) mRNA; conditions: Homo sapiens, Tables 4A/4B, read-out: HTT (IC50, decrease in CJ mRNA, gene panel)
Method in brief: as §2

[3] = 24 h, A673 or K562 cells, 24 hours compound treatment, RT-qPCR
[4] = 24 h, A673 or K562 cells, 24 hours compound treatment, RT-qPCR, read-out: MYB CJ (IC50, decrease in canonical junction mRNA)
[5] = Tables 4A/4B, canonical junction qPCR panel, read-out: MYB (IC50, decrease in CJ mRNA, gene panel)

Row | Structure (SMILES) | AC50 (MYB mRNA; [3]) [µM] | IC50 (MYB mRNA; [4]) [µM] | IC50 (MYB mRNA; [5]) [µM] | IC50 (SMN2 mRNA) [µM] | IC50 (Target C mRNA) [µM] | IC50 (HTT mRNA [1]) [µM] | AC50 (HTT mRNA [1]) [µM] | IC50 (HTT mRNA [2]) [µM]
1 | CCNC1CCN(c2ccc(C(=O)Nc3cc(F)c4nc(C)cn4c3)c3nn(CCOC)cc23)CC1 [Compound 307, 4-[4-(ethylamino)piperidin-1-yl]-N-{8-fluoro-2-methylimidazo[1,2-a]pyridin-6-yl}-2-(2-methoxyethyl) indazole-7-carboxamide] | 0.1 to 1 | 0.1 to 1 | 0.1 to 1 | < 0.1 | > 10 | 1 to 10 | 1 to 10 | 1 to 10
2 | Cc1cn2cc(NC(=O)c3ccc(N4CCNCC4)c4cn(CC5(C)COC5)nc34)cc(F)c2n1 [Compound 308, N-{8-fluoro-2-methylimidazo[1,2-a]pyridin-6-yl}-2-[(3-methyloxetan-3-yl)methyl]-4-(piperazin-1-yl)indazole-7-carboxamide] | > 10 | > 10 | > 10 | > 10 | > 10 | > 10 | > 10 | > 10
3 | Cc1cn2cc(NC(=O)c3ccc(N4CCNCC4)c4cn(CC(=O)N(C)C)nc34)cc(F)c2n1 [Compound 309, 2-[(dimethylcarbamoyl)methyl]-N-{8-fluoro-2-methylimidazo[1,2-a]pyridin-6-yl}-4-(piperazin-1-yl)indazole-7-carboxamide] | > 10 | 1 to 10 | 1 to 10 | 1 to 10 | > 10 | > 10 | > 10 | > 10
4 | CCNC1CCN(c2ccc(C(=O)Nc3cc(F)c4nc(C)cn4c3)c3nn(CCOC)cc23)C1 (stereo not drawn) [Compound 310, 4-(3-(ethylamino)pyrrolidin-1-yl)-N-(8-fluoro-2-methylimidazo[1,2-a]pyridin-6-yl)-2-(2-methoxyethyl)-2H-indazole-7-carboxamide] | < 0.1 | < 0.1 | < 0.1 | < 0.1 | > 10 | 1 to 10 | 1 to 10 | 1 to 10
5 | COc1cc(C(=O)Nc2cc(F)c3nc(C)cn3c2)c2nn(C)cc2c1N1CCNCC1 [Compound 311, N-{8-fluoro-2-methylimidazo[1,2-a]pyridin-6-yl}-5-methoxy-2-methyl-4-(piperazin-1-yl)indazole-7-carboxamide] | 1 to 10 | 0.1 to 1 | 0.1 to 1 | < 0.1 | > 10 | > 10 | > 10 | > 10
6 | CCCCn1cc2c(N3CCNCC3)ccc(C(=O)Nc3cc(F)c4nc(C)cn4c3)c2n1 [Compound 312, 2-butyl-N-{8-fluoro-2-methylimidazo[1,2-a]pyridin-6-yl}-4-(piperazin-1-yl)indazole-7-carboxamide] | < 0.1 | 0.1 to 1 | 0.1 to 1 | < 0.1 | 1 to 10 | 1 to 10 | 1 to 10 | 1 to 10
7 | Cc1cn2cc(NC(=O)c3ccc(N4CCNCC4)c4cn(Cc5ccncc5)nc34)cc(F)c2n1 [Compound 313, N-{8-fluoro-2-methylimidazo[1,2-a]pyridin-6-yl}-4-(piperazin-1-yl)-2-(pyridin-4-ylmethyl)indazole-7-carboxamide] | 1 to 10 | 1 to 10 | 1 to 10 | 0.1 to 1 | 1 to 10 | > 10 | > 10 | > 10
8 | Cc1cn2cc(NC(=O)c3ccc(N4CCNCC4)c4cn(C)nc34)cc(C#N)c2n1 [Compound 314, N-{8-cyano-2-methylimidazo[1,2-a]pyridin-6-yl}-2-methyl-4-(piperazin-1-yl) indazole-7-carboxamide hydrochloride] | < 0.1 | < 0.1 | < 0.1 | < 0.1 | > 10 | 1 to 10 | 1 to 10 | 1 to 10
9 | COc1c(NC(=O)c2ccc(N3CCNCC3)c3cn(C)nc23)cc2cn(C)nc2c1F [Compound 315, N-(7-fluoro-6-methoxy-2-methylindazol-5-yl)-2-methyl-4-(piperazin-1-yl) indazole-7-carboxamide hydrochloride] | < 0.1 | < 0.1 | < 0.1 | < 0.1 | 0.1 to 1 | 0.1 to 1 | 0.1 to 1 | 0.1 to 1
10 | Cc1cn2cc(NC(=O)c3ccc(N4CCNCC4)c4cn(CC(F)(F)F)nc34)cc(F)c2n1 [Compound 316, N-{8-fluoro-2-methylimidazo[1,2-a]pyridin-6-yl}-4-(piperazin-1-yl)-2-(2,2,2-trifluoroethyl)indazole-7-carboxamide] | 0.1 to 1 | 1 to 10 | 1 to 10 | 0.1 to 1 | > 10 | > 10 | > 10 | > 10
11 | Cc1cn2cc(NC(=O)c3ccc(N4CCNCC4)c4cn(Cc5cncnc5)nc34)cc(F)c2n1 [Compound 318, N-{8-fluoro-2-methylimidazo[1,2-a]pyridin-6-yl}-4-(piperazin-1-yl)-2-(pyrimidin-5-ylmethyl)indazole-7-carboxamide] | 0.1 to 1 | 0.1 to 1 | 0.1 to 1 | < 0.1 | > 10 | > 10 | > 10 | > 10
12 | Cn1cc2cc(NC(=O)c3ccc(N4CCNCC4)c4cn(C)nc34)cc(F)c2n1 [Compound 319, N-(7-fluoro-2-methylindazol-5-yl)-2-methyl-4-(piperazin-1-yl) indazole-7-carboxamide hydrochloride] | < 0.1 | < 0.1 | < 0.1 | < 0.1 | 1 to 10 | 1 to 10 | 1 to 10 | 1 to 10
13 | Cc1cc(NC(=O)c2ccc(N3CCNCC3)c3cn(C)nc23)cc2cn(C)nc12 [Compound 320, N-(2,7-dimethylindazol-5-yl)-2-methyl-4-(piperazin-1-yl) indazole-7-carboxamide; trifluoroacetic acid] | 0.1 to 1 | 0.1 to 1 | 0.1 to 1 | < 0.1 | > 10 | 1 to 10 | 1 to 10 | 1 to 10
14 | Cc1cc(NC(=O)c2ccc(N3CCNCC3)c3cn(C)nc23)cc2c1nc(C)n2C [Compound 321, 2-methyl-4-(piperazin-1-yl)-N-(2,3,7-trimethyl-1,3-benzodiazol-5-yl) indazole-7-carboxamide trifluoroacetate] | > 10 | > 10 | > 10 | > 10 | > 10 | > 10 | > 10 | > 10
15 | Cc1cn2nc(NC(=O)c3ccc(N4CCNCC4)c4cn(C)nc34)cc(C)c2n1 [Compound 322, N-{2,8-dimethylimidazo[1,2-b]pyridazin-6-yl}-2-methyl-4-(piperazin-1-yl) indazole-7-carboxamide hydrochloride] | > 10 | 1 to 10 | 1 to 10 | 1 to 10 | > 10 | > 10 | > 10 | > 10
16 | COc1nc(NC(=O)c2ccc(N3CCNCC3)c3cn(C)nc23)cn2cc(C)nc12 [Compound 323] | < 0.1 | < 0.1 | < 0.1 | < 0.1 | 1 to 10 | < 0.1 | 0.1 to 1 | < 0.1
17 | Cn1cc2cc(NC(=O)c3ccc(N4CCNCC4)c4cn(C)nc34)ccc2n1 [Compound 324, 2-methyl-N-(2-methylindazol-5-yl)-4-(piperazin-1-yl) indazole-7-carboxamide hydrochloride] | 0.1 to 1 | 0.1 to 1 | 0.1 to 1 | < 0.1 | > 10 | > 10 | 1 to 10 | > 10
18 | Cc1c(O)c(NC(=O)c2ccc(N3CCNCC3)c3cn(C)nc23)cc2cn(C)nc12 [Compound 325, N-(6-hydroxy-2,7-dimethylindazol-5-yl)-2-methyl-4-(piperazin-1-yl) indazole-7-carboxamide hydrochloride] | 1 to 10 | 1 to 10 | 1 to 10 | < 0.1 | > 10 | > 10 | > 10 | > 10
